The values below come from patent publication US8178506B2, “Oligomeric compounds and compositions for use in modulation of small non-coding RNAs” (Regulus Therapeutics Inc., priority 2003, dated 2012).

In the oligonucleotide strings, read from the 5' end, every base follows the letter of its sugar. An asterisk marks phosphorothioate; unmarked linkages are phosphodiester. Other units and linkages are bracketed, terminal groups are in braces. A string of capitals states the bases alone. e = 2'-O-(2-methoxyethyl) (MOE); [5mC] = 5-methylcytosine

Holding throughout (type): cell-based, human
Data set [1] relates to adipocytes. Put plainly: Triglyceride accumulation assay in adipocytes.
The subject of data set [2] is aP2. Put plainly: aP2 mRNA expression in adipocytes (real-time PCR). As to conditions: for aP2 mRNA: Table 75. In general terms: In qPCR the cycle at which signal appears reflects the starting amount.
Data set [3] relates to HSL. Put plainly: HSL mRNA expression in adipocytes (real-time PCR).
Data set [4] concerns Glut4. Put plainly: Glut4 mRNA expression in adipocytes (real-time PCR).
The subject of data set [5] is PPARγ. Put plainly: PPARγ mRNA expression in adipocytes (real-time PCR).
Where [6] appears, read: differentiating adipocytes transfected with oligomeric compound, Table 75.
Setting [7] is: differentiating adipocytes transfected with oligomeric compound.
The mark [8] stands for this setting: Table 18, differentiating adipocytes, control = treatment with ISIS 342673.
The mark [9] stands for this setting: Table 17, differentiating adipocytes, control = treatment with ISIS 342673.

For the substance “346685 (GGCGGAACUUAGCCACUGUGAA; all 2'-MOE, all phosphorothioate, methylation of C and T or U not given here) [compound 346685]”, the “TG (triglyceride accumulation)” value in data set [1] (setting [6]) is given as 164 percentage of untreated control (UTC). In data set [2] (setting [7]), the “aP2 mRNA” value is 181 percentage of untreated control (UTC). Moreover, the “HSL mRNA” value in data set [3] (setting [6]) was 172 percentage of untreated control (UTC). The “GLUT4 mRNA” value in data set [4] (setting [6]) is 233 percentage of untreated control (UTC). The “PPAR gamma mRNA” value in data set [5] (setting [6]) was 138 percentage of untreated control (UTC).
With “348127 (GCAGAACUUAGCCACUGUGAA; all 2'-MOE, all phosphorothioate, methylation of C and T or U not given here) [compound 348127]”, in data set [1] (setting [6]), the “TG (triglyceride accumulation)” value is listed as 155 percentage of untreated control (UTC). Further, the “aP2 mRNA” value in data set [2] (setting [7]) is recorded as 185 percentage of untreated control (UTC). For the same substance, the “HSL mRNA” value in data set [3] (setting [6]) is listed as 150 percentage of untreated control (UTC). Also, the “GLUT4 mRNA” value in data set [4] (setting [6]) is on record as 201 percentage of untreated control (UTC). Also, the “PPAR gamma mRNA” value in data set [5] (setting [6]) is given as 130 percentage of untreated control (UTC).
On to “328101 (antisense eA*eA*eA*e[5mC]*e[5mC]*e[5mC]*e[5mC]*eT*eA*eT*e[5mC]*eA*e[5mC]*eG*eA*eT*eT*eA*eG*e[5mC]*eA) [compound 328101]”, for which the “TG (triglyceride accumulation)” value in data set [1] (setting [8]) was 108.6 percentage of control; in data set [1] (setting [6]), 67 percentage of untreated control (UTC). Also, the “AP2 mRNA” value in data set [2] (setting [8]) is on record as 83.2 percentage of control. Further, in data set [2] (setting [7]), the “aP2 mRNA” value is 83 percentage of untreated control (UTC). The results for the “HSL mRNA” value in data set [3] (setting [8]) and in data set [3] (setting [6]) were 91.8 percentage of control and 78 percentage of untreated control (UTC), respectively. For the same substance, the entries for the “GLUT4 mRNA” value in data set [4] (setting [8]) and in data set [4] (setting [6]) were 84.7 percentage of control and 57 percentage of untreated control (UTC), respectively. Moreover, the results for the “PPAR gamma mRNA” value in data set [5] (setting [8]) and in data set [5] (setting [6]) were 79.3 percentage of control and 70 percentage of untreated control (UTC), respectively.
Take “328127 (antisense eA*eA*e[5mC]*eG*eA*eT*eA*eA*eA*eA*e[5mC]*eA*eT*eA*e[5mC]*eT*eT*eG*eT*e[5mC]*eA) [compound 328127]”: the “TG (triglyceride accumulation)” value in data set [1] (setting [9]) was 74.5 percentage of control; in data set [1] (setting [6]), 81 percentage of untreated control (UTC). In addition, the “AP2 mRNA” value in data set [2] (setting [9]) was 86.9 percentage of control. Also, the “aP2 mRNA” value in data set [2] (setting [7]) is on record as 95 percentage of untreated control (UTC). In addition, the “HSL mRNA” value in data set [3] (setting [9]) is 89.7 percentage of control; in data set [3] (setting [6]) it was 93 percentage of untreated control (UTC). In addition, the “GLUT4 mRNA” value in data set [4] (setting [9]) was 80.8 percentage of control; in data set [4] (setting [6]), 75 percentage of untreated control (UTC). Also, the results for the “PPAR gamma mRNA” value in data set [5] (setting [9]) and in data set [5] (setting [6]) were 77.6 percentage of control and 85 percentage of untreated control (UTC), respectively.
For the substance “328112 (antisense eA*eT*e[5mC]*eA*eT*eT*eA*e[5mC]*eT*eG*eG*eA*eT*eT*eG*e[5mC]*eT*eG*eT*eA*eA) [compound 328112]”, the entries for the “TG (triglyceride accumulation)” value in data set [1] (setting [8]) and in data set [1] (setting [7]) were 98.1 percentage of control and 92 percentage of untreated control (UTC), respectively. Moreover, the entries for the “AP2 mRNA” value in data set [2] (setting [8]) and in data set [2] (setting [7]) were 99.1 percentage of control and 73 percentage of untreated control (UTC), respectively. The “HSL mRNA” value in data set [3] (setting [8]) was 101.2 percentage of control; in data set [3] (setting [7]), 89 percentage of untreated control (UTC). In addition, the “GLUT4 mRNA” value is reported as 122.5 percentage of control in data set [4] (setting [8]) and 97 percentage of untreated control (UTC) in data set [4] (setting [7]). Moreover, the “PPAR gamma mRNA” value in data set [5] (setting [8]) is recorded as 102.4 percentage of control; in data set [5] (setting [7]), 79 percentage of untreated control (UTC).
